Test results taken from ChEMBL document CHEMBL1201862, “PubChem BioAssay data set” (2004).
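These data come from cells grown in 96-well plates and exposed to compound for 48 hours at five concentrations. Abbreviation: GI50, concentration required for 50% inhibition of growth.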 Calls of active or inactive are those of the source. Cut-off read from the data, not from the text of the source: active = GI50 up to about 1.1 µM and inactive = higher.

Tests used:
Assay in all cases: NCI-60 cell line screen, 48 h
M14 = tested on: M14
RPMI-8226 = tested on: RPMI-8226
SNB-19 = tested on: SNB-19
BT-549 = tested on: BT-549
MCF7 = tested on: MCF7
OVCAR-5 = tested on: OVCAR-5
SK-MEL-2 = tested on: SK-MEL-2
HOP-62 = tested on: HOP-62
OVCAR-3 = tested on: OVCAR-3
DU-145 = tested on: DU-145
SR = tested on: SR
K562 = tested on: K562
SK-OV-3 = tested on: SK-OV-3
OVCAR-8 = tested on: OVCAR-8
NCI-H226 = tested on: NCI-H226
MDA-N = tested on: MDA-N
Hs-578T = tested on: Hs-578T
PC-3 = tested on: PC-3
COLO 205 = tested on: COLO 205
Malme-3M = tested on: Malme-3M

Measured: GI50

O=C1OCC2OC(=O)c3cc(O)c(O)c(O)c3-c3c(O)c(O)c(O)c4c3C(=O)OC(C2OC(=O)c2cc(O)c(O)c(O)c2-c2c1cc(O)c(O)c2O)C1OC(=O)c2c-4c(O)c(O)c(O)c2[C@@H]1C(O)C(O)C(O)C(O)CO (stereo not given in full)
inactive: M14 17.8 µM | RPMI-8226 29 µM | SNB-19 46 µM | BT-549 22.8 µM | MCF7 3.82 µM | OVCAR-5 16 µM | SK-MEL-2 21.6 µM | HOP-62 17.9 µM | OVCAR-3 28.2 µM | DU-145 20.2 µM | SR 22.5 µM | K562 10.5 µM | SK-OV-3 27.4 µM | OVCAR-8 23.3 µM | NCI-H226 17.6 µM | MDA-N 7.11 µM | Hs-578T 27.9 µM | PC-3 20.7 µM | COLO 205 15.7 µM | Malme-3M 18.1 µM
